The values that follow come from PubChem BioAssay (NCI).

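Five concentrations, 48 hours, 96-well plates. GI50: concentration for 50% inhibition of growth. TGI is the concentration that stops growth completely.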

Common to all, as to assay: NCI anticancer screen, dose series, 48 h
The subject of assay [1] is KM12 colon.
Assay [2] relates to MOLT-4 leukemia.
The test system of assay [3] is SNB-75 CNS.
Assay [4] has as its system SN12C renal.
Assay [5] concerns OVCAR-8 ovarian.
Assay [6] deals with LOX IMVI melanoma.
Assay [7] relates to NCI-H23 lung.
In assay [8] the test system is SK-OV-3 ovarian.
Assay [9] relates to SK-MEL-2 melanoma.
Assay [10] concerns NCI-H522 lung.

Turning to `CC(=O)OCC1OC(N2C(=O)C(=O)c3ccccc32)C(OC(C)=O)C(OC(C)=O)C1OC(C)=O` (stereo not given), the TGI in assay [1], in assay [2], in assay [3], in [4], in [5] and in assay [6] was above 100 µM in each case. Further, the TGI in assay [7], in [8], in assay [9] and in [10] was above 100 µM in each case.

`O=C(N/N=C/c1ccccc1O)c1ccccc1`: the GI50 is 4.1 µM in assay [1]; 0.503 µM in [2]; 3.5 µM in assay [3]; 2.45 µM in assay [4]; 3.46 µM in assay [5]; 1.47 µM in [6]. The GI50 in [7] is 4.92 µM; in assay [8], 5.14 µM; in assay [9] it was above 100 µM; in [10], 2.67 µM. The TGI in assay [1] was above 100 µM; in [2], above 100 µM; in assay [3], above 100 µM; in assay [4], above 100 µM; in assay [5], above 100 µM; in [6] it was 10.9 µM. Further, the TGI in [7] is above 100 µM; in assay [8] it was above 100 µM; in assay [9], above 100 µM; in [10], 53 µM.

For the compound `C=C1C(=O)O[C@H]2[C@H]1CC/C(C=Nc1c(N)cc(C(F)(F)F)cc1Br)=C\CC[C@@]1(C)O[C@@H]21`, the GI50 in [1] was 1.8 µM; in assay [2] it was 0.624 µM; in assay [3], 1.27 µM; in assay [4] it was 1.5 µM; in assay [5], 2.34 µM; in assay [6], 1.4 µM. Besides, the GI50 is 1.84 µM in assay [7], 6.56 µM in assay [8], 1.63 µM in assay [9] and 1.37 µM in assay [10]. Besides, the TGI in [1] was 3.97 µM; in assay [2], above 100 µM; in assay [3], 3.67 µM; in assay [4] it was 3.51 µM; in assay [5] it was 9.03 µM; in assay [6] it was 2.74 µM. Also, the TGI in assay [7] was found to be 4.41 µM; in assay [8], 18.9 µM; in [9], 3.47 µM; in assay [10] it was 2.96 µM.
